Patent US7727736B2, “Soluble phospholipids for use in clotting factor assays” (The University of North Carolina at Chapel Hill, priority 2003, dated 2010)
pKd: −log10 of the molar value.

Assays:
Format in all cases: biochemical
[1] = molecular target: T1, factor VIII (Homo sapiens, UniProt P00451); experiment: Chromogenic FVIII assay; details: normal pooled plasma (100% factor VIII), varying C6PS
T1 construct: using normal pooled plasma (100% factor VIII); from tissue; host or cells: normal pooled plasma
T1 sequence (P00451 20-391 limits assumed): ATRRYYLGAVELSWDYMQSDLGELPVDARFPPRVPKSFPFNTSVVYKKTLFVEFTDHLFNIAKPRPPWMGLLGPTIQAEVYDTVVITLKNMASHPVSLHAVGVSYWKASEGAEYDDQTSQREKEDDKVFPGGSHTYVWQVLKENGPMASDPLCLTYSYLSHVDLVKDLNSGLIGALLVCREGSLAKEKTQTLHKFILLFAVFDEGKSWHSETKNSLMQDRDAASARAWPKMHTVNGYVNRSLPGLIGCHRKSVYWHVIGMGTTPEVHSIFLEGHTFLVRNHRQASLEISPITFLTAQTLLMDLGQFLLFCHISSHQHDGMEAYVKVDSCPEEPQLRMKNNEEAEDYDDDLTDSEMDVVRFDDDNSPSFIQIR
T1 sequence (P00451 392-759 limits assumed): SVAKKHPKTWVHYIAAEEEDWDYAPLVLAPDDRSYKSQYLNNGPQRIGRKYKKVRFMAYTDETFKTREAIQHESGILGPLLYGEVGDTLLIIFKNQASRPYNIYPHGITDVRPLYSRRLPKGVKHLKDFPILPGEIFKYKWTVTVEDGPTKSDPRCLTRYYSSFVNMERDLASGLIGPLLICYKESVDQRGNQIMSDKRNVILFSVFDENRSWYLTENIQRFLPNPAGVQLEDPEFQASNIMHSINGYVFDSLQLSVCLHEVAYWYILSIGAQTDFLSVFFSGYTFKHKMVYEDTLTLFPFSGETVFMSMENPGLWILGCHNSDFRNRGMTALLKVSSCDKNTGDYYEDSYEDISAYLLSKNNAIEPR
T1 sequence (P00451 1709-2351 limits assumed): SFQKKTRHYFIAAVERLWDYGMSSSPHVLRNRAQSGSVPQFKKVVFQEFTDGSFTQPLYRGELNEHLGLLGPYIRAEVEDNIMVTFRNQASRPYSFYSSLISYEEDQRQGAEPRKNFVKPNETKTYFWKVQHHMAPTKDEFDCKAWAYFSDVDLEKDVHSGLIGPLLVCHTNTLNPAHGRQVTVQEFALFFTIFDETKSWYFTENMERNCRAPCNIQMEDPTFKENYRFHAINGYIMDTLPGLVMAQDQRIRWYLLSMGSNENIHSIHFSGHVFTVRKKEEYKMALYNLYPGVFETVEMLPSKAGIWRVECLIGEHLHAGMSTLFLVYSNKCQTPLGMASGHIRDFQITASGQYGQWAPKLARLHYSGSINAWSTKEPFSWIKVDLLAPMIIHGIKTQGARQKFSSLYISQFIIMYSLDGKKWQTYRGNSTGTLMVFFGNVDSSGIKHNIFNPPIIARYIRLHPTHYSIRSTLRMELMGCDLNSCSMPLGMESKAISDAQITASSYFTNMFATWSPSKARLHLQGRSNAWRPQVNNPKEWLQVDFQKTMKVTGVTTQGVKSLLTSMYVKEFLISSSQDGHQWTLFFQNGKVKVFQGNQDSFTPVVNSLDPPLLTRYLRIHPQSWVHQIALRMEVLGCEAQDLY
T1 sequence (P00740 47-191 partner limits assumed): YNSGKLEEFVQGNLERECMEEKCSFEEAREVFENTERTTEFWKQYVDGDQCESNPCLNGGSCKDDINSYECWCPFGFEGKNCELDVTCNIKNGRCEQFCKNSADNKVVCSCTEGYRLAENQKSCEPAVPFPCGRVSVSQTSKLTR
T1 sequence (P00740 227-461 partner limits assumed): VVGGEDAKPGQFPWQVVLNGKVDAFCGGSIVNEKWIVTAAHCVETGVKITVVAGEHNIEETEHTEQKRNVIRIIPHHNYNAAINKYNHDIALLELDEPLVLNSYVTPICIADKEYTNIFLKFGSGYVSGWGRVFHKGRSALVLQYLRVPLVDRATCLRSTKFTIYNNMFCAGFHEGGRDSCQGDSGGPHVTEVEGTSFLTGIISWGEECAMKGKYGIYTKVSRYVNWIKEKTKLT
Method: For the chromogenic […], a standard curve was prepared by diluting normal pooled plasma (which had 1 U/mL […] according to the certification sheets) into […] to give levels of 100% factor VIII, 75%, 50%, 25%, and 10% along with the factor VIII deficient plasma, which has 0% factor VIII.
Two mixtures were prepared. Mixture #1 consisted of thrombin—3 nM, factor IXa—3 nM, factor X—7.2 μg/mL, calcium—12 mM in a buffer of 20 mM Tris (pH 7.9), 150 mM NaCl. Also included in Mixture #1 were either lipid vesicles (lipid unilamellar vesicles; “LUV”)—20 μM or C6PS—2,625 μM. Mixture #2 consisted of hirudin—60 nM and Pefachrome FXa—1.8 mM in a buffer of 20 mM Tris (pH 7.9), 150 mM NaCl.
Factor VIII levels were assayed by adding 25 μL plasma to 2000 μL of buffer. 50 μL of the diluted plasma, 100 μL Mixture #1, and […] were incubated at 37° C. for 3 minutes. […] Finally, 50 μL of Mixture #2 was added to diluted plasma+Mixture #1 and the reaction was monitored at 405 nm for 5 minutes. The rate is the change in absorbance between 30 seconds and 120 seconds expressed as mOD/minute. […]
The effect of varying C6PS levels was also monitored as described above using normal pooled plasma (100% factor VIII), except that the concentration of C6PS in Mixture #1 was varied by serial dilution into buffer before being added to the final Mixture #1.

[2] = molecular target: T2, prothrombinase complex (FXa-FVa) (Homo sapiens, UniProt P00742+P12259); experiment: Kinetics of prothrombin and MzIIa activation by C6PS- or membrane-assembled prothrombinase
T2 construct: Human prothrombin and factor Xa; tissue Hematologic Technologies Inc. (factor Xa only); factor Xa purchased
T2 sequence (P00742 41-179 limits assumed): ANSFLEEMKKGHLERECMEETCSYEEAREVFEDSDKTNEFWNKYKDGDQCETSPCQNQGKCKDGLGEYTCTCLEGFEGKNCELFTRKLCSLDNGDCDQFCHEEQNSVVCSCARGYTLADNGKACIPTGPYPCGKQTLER
T2 sequence (P00742 235-488 limits assumed): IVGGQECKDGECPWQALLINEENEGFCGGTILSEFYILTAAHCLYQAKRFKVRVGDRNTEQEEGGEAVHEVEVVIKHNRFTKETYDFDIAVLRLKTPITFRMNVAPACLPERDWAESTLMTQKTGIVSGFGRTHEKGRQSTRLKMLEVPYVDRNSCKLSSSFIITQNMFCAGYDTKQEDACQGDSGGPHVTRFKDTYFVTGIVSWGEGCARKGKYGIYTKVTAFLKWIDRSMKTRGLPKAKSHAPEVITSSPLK
T2 sequence (P12259 29-737 limits assumed): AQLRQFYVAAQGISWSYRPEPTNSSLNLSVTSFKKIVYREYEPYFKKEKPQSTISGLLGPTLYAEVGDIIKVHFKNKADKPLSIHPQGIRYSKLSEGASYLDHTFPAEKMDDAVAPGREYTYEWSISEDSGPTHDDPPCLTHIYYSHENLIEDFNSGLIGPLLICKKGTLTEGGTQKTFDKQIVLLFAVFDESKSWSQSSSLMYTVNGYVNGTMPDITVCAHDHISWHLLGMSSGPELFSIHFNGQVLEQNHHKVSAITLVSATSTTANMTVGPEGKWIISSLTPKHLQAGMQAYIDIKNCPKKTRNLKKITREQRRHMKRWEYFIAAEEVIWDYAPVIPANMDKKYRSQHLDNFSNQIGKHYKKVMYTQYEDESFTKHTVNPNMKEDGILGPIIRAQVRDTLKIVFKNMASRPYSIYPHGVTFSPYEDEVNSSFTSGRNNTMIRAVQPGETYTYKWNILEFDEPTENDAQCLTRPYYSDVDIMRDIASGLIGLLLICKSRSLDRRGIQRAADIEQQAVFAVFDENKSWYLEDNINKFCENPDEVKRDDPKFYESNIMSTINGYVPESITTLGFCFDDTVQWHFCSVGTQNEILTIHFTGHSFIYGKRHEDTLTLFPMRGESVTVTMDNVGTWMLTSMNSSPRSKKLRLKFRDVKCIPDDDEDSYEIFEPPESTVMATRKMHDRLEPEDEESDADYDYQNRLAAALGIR
T2 sequence (P12259 1574-2224 limits assumed): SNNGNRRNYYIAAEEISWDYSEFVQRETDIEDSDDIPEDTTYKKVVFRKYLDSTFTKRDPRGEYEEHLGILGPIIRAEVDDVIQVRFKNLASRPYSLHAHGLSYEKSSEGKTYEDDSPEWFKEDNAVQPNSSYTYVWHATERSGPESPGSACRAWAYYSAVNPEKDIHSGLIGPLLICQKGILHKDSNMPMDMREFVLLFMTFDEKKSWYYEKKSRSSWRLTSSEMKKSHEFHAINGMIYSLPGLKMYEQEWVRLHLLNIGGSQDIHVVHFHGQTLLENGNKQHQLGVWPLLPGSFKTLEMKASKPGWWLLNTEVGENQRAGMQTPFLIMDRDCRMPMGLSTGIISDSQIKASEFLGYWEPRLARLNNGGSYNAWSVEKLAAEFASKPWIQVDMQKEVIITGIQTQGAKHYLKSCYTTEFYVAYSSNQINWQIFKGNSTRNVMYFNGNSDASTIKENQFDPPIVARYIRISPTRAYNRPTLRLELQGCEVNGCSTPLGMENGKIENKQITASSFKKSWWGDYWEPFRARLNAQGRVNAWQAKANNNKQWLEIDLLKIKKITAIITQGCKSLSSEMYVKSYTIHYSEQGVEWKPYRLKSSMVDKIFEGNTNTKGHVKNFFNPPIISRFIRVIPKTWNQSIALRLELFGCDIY
Method: Fluorescence Stopped-Flow Measurements. The rates of thrombin formation from either MzIIa or Pre2 (with equimolar fragment 1.2), or of thrombin plus MzIIa formation from human prothrombin, were estimated from the time-dependent fluorescence change of DAPA bound to the activation products. […] Stopped-flow measurements were performed using an SLM-Aminco Milliflow® stopped flow reactor (Spectronic Instruments, Inc., Rochester, N.Y.) attached to the SLM 48000® spectrofluorometer (Spectronic Instruments) as described (Wu, et al. (2002) supra; Weinreb, et al. (2003) supra). […] The calculation of rates from measurements of initial fluorescence intensity (F0) and intensity at the completion of the reaction (F∞) is well-established (Nesheim and Mann (1983) supra; Wu, et al. (2002) supra).
Rapid Chemical Quench Measurements. […] Prothrombin solution in 50 mM Tris, 150 mM NaCl, 5 mM Ca^2+, 0.6% PEG (to limit thrombin adsorption to micro-plates), pH 7.5, was loaded into one sample loop, and pre-assembled prothrombinase complex (factor concentrations same as in stopped flow fluorescence studies) in the same buffer was loaded into another sample loop. […]

[3] = molecular target: T3, factor IXa (Homo sapiens, UniProt P00740); experiment: Amidolytic activity of factor IXa with increasing C6PS; details: 300 nM factor IXa, substrate Leu-PHG-Arg-pNA-AcOH; read-out: Kd from amidolytic activity of factor IXa
T3 construct: intrinsic tryptophan fluorescence of factor IXa
T3 sequence (P00740 47-191 limits assumed): as the sequence (P00740 47-191 partner limits assumed) above
T3 sequence (P00740 227-461 limits assumed): as the sequence (P00740 227-461 partner limits assumed) above
Method: The assay was conducted in the presence of 1 mM Leu-PHG-Arg-pNA.AcOH and increasing concentrations of C6PS.

`CCCCCC(=O)OC[C@H](COP(=O)(O)OC[C@H](N)C(=O)O)OC(=O)CCCCC` [C6PS, 1,2-dicaproyl-sn-glycero-3-phospho-L-serine] was tested, and the “rate in FVIII chromogenic assay versus C6PS concentration” value [1] was “saturated”, the “fraction of prothrombin converted directly (channeled) to thrombin” value ([2]; 400 μM C6PS, FXa 1 nM, FVa2 5 nM) was 58% and the “activation by C6PS-assembled complex relative to literature membrane complex” value ([2]; C6PS with FVa2 vs membrane with FVa) was “an order of magnitude faster”. For the same molecule, the pKd [3] was 3.89.
